From patent US20050241940A1, “Fast perfusion system and patch clamp technique utilizing an interface chamber system having high throughput and low volume requirements” (Wyeth, priority 2004, published 2005)

System: outward potassium currents in DRG neurons
Assay: Whole cell patch clamp recording of outward potassium currents in DRG neurons using the interface chamber
Format: cell-based
Description: The current across a patch clamp measuring electrode and cell versus time is shown. Whole cell recording measurements were obtained via conventional methods. The interface chamber was moved to surround the cell as in steps 101-103 above. A measurement of current was recorded while the cell was in a well containing a normal saline (control) solution. The cell was then moved from normal saline to a well containing increasing concentrations (from 0 to 10 mM in increasing increments) of the K^+ channel blocker 4-AP. For each of the measurements, cells were held at −50 mV, stepped with a prepulse to −100 mV for 400 ms and then stepped for the test to +40 mV. After the test pulse, cells were repolarized to −60 mV. Sweeps were obtained every 10 sec, and 5 sweeps were obtained per well. The interface was moved from one well to the next in a short time, such as 2 seconds.
Outward currents due to K^+ flow from the cell is shown. […] The lower current is consistent with the expected blocking effected of the 4-AP. Both the peak current (the spike at the left of graph of each measurement) and the end current (final value of current for each measurement) decreased as the concentration of 4-AP increased.
FIG. 8 illustrates a graph showing the peak current of a fractional block versus the concentration of a test substance according to one example of the invention. […] The dose response curve shown illustrates the ability of this system to measure multiple concentrations of test substance accurately.

[1] = highest concentration tested (10 mM)

SMILES: Nc1ccncc1 [4-AP]
- end current (final value of current for each measurement) (as the concentration of 4-AP increased (0 to 10 mM)): decreased
- peak current (as the concentration of 4-AP increased (0 to 10 mM), FIG. 7, shown as fractional block in FIG. 8): the peak current decreased as the concentration of 4-AP increased
- inactivating current remaining [1]: no inactivating current remains
- non-inactivating (persistent) current remaining [1]: significant non-inactivating (persistent) current persists
- current across the cell membrane (outward K+ current) (whole cell, increasing 4-AP concentrations from 0 to 10 mM, test pulse to +40 mV): decreased the current across the cell membrane
